The NIST ThermoML archive (doi:10.1016/j.jct.2019.07.007)

Experiment: wn = mass fraction of the nth substance listed
Conditions: 101 kPa, Liquid, Concentric cylinders viscometry

CC(O)CN(C)C (centres undefined) [1-(dimethylamino)-2-propanol] + O
viscosity [mPa·s]
Conditions	303.2 K	313.2 K	323.2 K
w1 = 0.3	3.1	2.18	1.66
w1 = 0.4	4.56	3.08	2.19
w1 = 0.5	6.01	3.96	2.79
